Columns and labels:
[1] = system: R5 strains (Bal, ADA, CSF-6 and BL-6); assay: HIV RT activity in MDM infected with R5 strains; assay type: cell-based
Procedure: (§1) Based upon their differential use of the major HIV co-receptors, HIV isolates have been referred to as R5, X4 or R5X4 strains, respectively (29). The M-tropic (macrophage-tropic) R5 prototype strains (Bal and ADA), dual tropic strain (89.6) and X4 primary isolate (UG024), were obtained from the NIH AIDS Reagent Program. Primary M-tropic isolates (BL-6 and CSF-6) were isolated from the blood and cerebrospinal fluid cells, respectively, of a subject with AIDS.
(§2) The cells were also incubated with SP and/or anti-SP antibody. In this case, SP was incubated with (1:1000 dilution in 10% FCS DMEM) or without anti-SP antibody at room temperature for 10 min and then the mixture was added to the cell cultures for 2 h. When the cells were treated with the combination of CP-96,345 and SP, or CP-96,345, SP and anti-SP antibody, CP-96,345 was incubated with the cell culture for 10 min and then SP was added to the MDM or CP-96,345, SP and anti-SP (1:1000 in 10% FCS DMEM) were incubated for 10 min at room temperature and the mixture was incubated with the MDM for 2 h before infection with HIV. Untreated MDM served as controls. The cells were treated prior to, during, and throughout the infection. […]

[2] = system: TNF-α; assay: LPS-stimulated TNF-α production in MDM (ELISA); assay type: cell-based, human; conditions: 10^−9 to 10^−7M; LPS 1 ng/ml; 24 h; concentration-dependent (FIG. 11)
Procedure: In order to determine the role of CP-96,345 in the regulation of cytokine secretion, 7-day-cultured MDM were incubated with or without CP-96,345 (10^−9 to 10^−7M) and/or LPS (1 ng/ml) for 24 h. The culture supernatants were collected to determine TNF-α and IL-6 levels by ELISA. The ELISA kits were purchased from Endogen, Inc. (Woburn, Mass.).

[3] = system: SP mRNA; assay: SP mRNA expression in MDM (real-time RT-PCR); assay type: cell-based, human; conditions: 4 hours; indicated concentration (FIG. 17)
Procedure: FIG. 17. A graph showing the effect of CP-96,345 on SP mRNA expression in MDM. The MDM were incubated with (+) or without (−) the NK-1R antagonist at the indicated concentration for 4 hours. The SP mRNA levels were determined by a real-time RT-PCR. The SP mRNA levels in the CP-96,345 treated MDM are expressed as a percentage of that in untreated MDM which are defined as 100%.
The effect of CP-96,345 on SP mRNA expression in MDM was also determined. The MDM were incubated with (+) or without (−) the NK-1R antagonist at the indicated concentration for 4 hours. The SP mRNA levels were determined by a real-time RT-PCR.

[4] = system: X4 strain (UG024); assay: HIV RT activity in MDM infected with X4 strain; assay type: cell-based
Procedure: as §1, §2

[5] = system: CCR5 mRNA; assay: CCR5 mRNA expression in MDM (RT-PCR); assay type: cell-based, human; conditions: for relative CCR5 mRNA level (real-time RT-PCR): CP-96,345 10^−7 to 10^−6 M or R-113281 10^−8 to 10^−6 M, 4 hours (FIG. 15A)
Procedure: Total RNA was isolated from human peripheral blood MDM (10^6 cells) using Tri-Reagent (Molecular Research Center, Cincinnati, Ohio) as we previously reported (16).
Reverse transcription: Total RNA (1 μg) was reverse transcribed using Reverse Transcription System (Promega, Madison, Wis.) with the specific primers (antisense) for HIV gag (5′-[…]-[…]-3′; SEQ ID NO: 1) (27) or CCR5 (5′-[…]-3′; SEQ ID NO: 2) (32) for 1 h at 42° C. RT reactions was terminated by incubating the reaction mixture at 99° C. for 5 min and then kept at 4° C. The resulting cDNA was used as a template for PCR amplification or real time PCR quantification.
Polymerase chain reaction (PCR) analysis: PCR amplification of CCR5 and HIV gag cDNA was performed with one tenth of the cDNA for 35 cycles (CCR5) (32) or 40 cycles (gag) (27) using AmpliTaq Gold (Perkin Elmer-Cetus, Foster City, Calif.) in a GeneAmp PCR System 2400 (Perkin Elmer-Cetus). β-Actin was used as a control to monitor the amount and integrity of RNA in each sample (Clontech, Palo Alto, Calif.). Real time PCR was performed with one tenth of cDNA using ABI Prism 7700 Sequence Detection System (Perkin Elmer). The reaction mixture contained 0.25 mM of dNTPs, AmpliTaq Gold (1.5 U), 5 mM of MgCl2, 50 pmole of each of the two primers (SK38: 5′-[…]-3′ (SEQ ID NO: 3); SK39: 5+-[…]-3′; SEQ ID NO: 4), 20 pmole of the molecular beacon probe (SK19: 5′-[…]-3′; SEQ ID NO: 5) labeled with FAM (a fluorophore) at its 5′ end and DABCYL (a quencher) at the 3′ end. The cycle conditions were 95° C. 10 min followed by 40 cycles of 95° C. 15 sec and 60° C. 1 min. The known amounts of HIV DNA isolated from ACH-2 cells were used as standard controls. All standards and samples were run in duplicates. HIV gag, CCR5, β-Actin primer pairs and the probe (SK19) were synthesized by Integrated DNA Technologies, Inc. (Coralville, Iowa).

[6] = system: HIV Bal strain; assay: HIV RT activity in HIV Bal strain-infected MDM; assay type: cell-based, HIV-1; conditions: for RT activity during HIV Bal infection of MDM: 10^−7−10^−6M (FIG. 18)
Procedure: The cells were also incubated with SP and/or anti-SP antibody. In this case, SP was incubated with (1:1000 dilution in 10% FCS DMEM) or without anti-SP antibody at room temperature for 10 min and then the mixture was added to the cell cultures for 2 h. When the cells were treated with the combination of CP-96,345 and SP, or CP-96,345, SP and anti-SP antibody, CP-96,345 was incubated with the cell culture for 10 min and then SP was added to the MDM or CP-96,345, SP and anti-SP (1:1000 in 10% FCS DMEM) were incubated for 10 min at room temperature and the mixture was incubated with the MDM for 2 h before infection with HIV. Untreated MDM served as controls. The cells were treated prior to, during, and throughout the infection.
HIV Infection: After 2 h incubation with or without the reagents described above, the cells were infected with equal amounts of cell-free HIV based on p24 antigen content (20 ng/10^6 cells) overnight, and then washed to remove unbound virus. Fresh media containing SP and/or CP-96,345 or anti-SP antibody were added to the MDM as described above. The culture media and the reagents were replaced twice weekly. The culture supernatants were harvested for HIV reverse transcriptase (RT) activity determinations. After HIV infection, the MDM were incubated for 8 to 12 days. At the termination of the experiments, cellular RNA was extracted for assessment of HIV gag gene expression using RT-PCR or real time RT-PCR assays.
The HIV RT activity assay was carried out based on the technique of Willey et al. (30) with modification (22).

[7] = system: HIV Bal strain; assay: HIV-induced syncytia formation in MDM; assay type: cell-based; conditions: 10^−7M; 12 days after infection (FIG. 2)
Procedure: Syncytia formation: To study the effect of neuropeptide antagonists on HIV-induced syncytia formation in MDM, 7-day-cultured macrophages were incubated in the presence or absence of CP-96,345 (10^−7M) for 2 h and then infected with HIV Bal strain. MDM which were neither incubated with CP-96,345 nor infected with HIV were used as a cell culture control. The morphology of HIV-induced syncytia formation was observed and photographed by a light microscopy (×400) 12 days after HIV infection.

[8] = CP-96,345 10^−7M, 8 days after infection (FIG. 6)
[9] = R-113281 10^−6 M, 8 days after infection (FIG. 14)

Row | Structure (SMILES) | replication of R5 strains (RT activity) [1, 8] | LPS-stimulated TNF-α production in MDM [2] | SP mRNA expression in MDM [3] | replication of X4 strain UG024 (RT activity) [4, 8] | CCR5 mRNA in MDM (RT-PCR) ([5]; 10^−8 to 10^−6M, 3 h (FIG. 9)) | relative CCR5 mRNA level (real-time RT-PCR) [5] | viral replication by HIV RT activity vs HIV infection control ([6]; 10^−7M, 8 days after infection (FIG. 4)) | RT activity during HIV Bal infection of MDM [6] | HIV replication relative to HIV infection control ([6]; CP-96,345 10^−6M and/or anti-SP antibody 1:1000, 12 days (FIG. 5)) | inhibition at 1 µM ([6]; Human immunodeficiency virus 1, BAL, 192 h, 10^−6M, day 8 after HIV infection (FIG. 1B)) [%] | inhibition at 0.1 µM ([6]; Human immunodeficiency virus 1, BAL, 192 h, 10^−7M, day 8 after HIV infection (FIG. 1B)) [%] | inhibition at 0.01 µM ([6]; Human immunodeficiency virus 1, BAL, 192 h, 10^−8M, day 8 after HIV infection (FIG. 1B)) [%] | effect on SP-enhanced HIV replication in MDM (RT activity and gag mRNA) ([6]; SP 10^−6M, CP-96,345 10^−6M, anti-SP antibody 1:1000, 12 days (FIG. 5)) | HIV-induced giant syncytia formation in MDM [7] | replication of R5 strains (RT activity) [1, 9] | replication of X4 strain (RT activity) [4, 9] | HIV RT activity in Bal-infected MDM ([6]; day 8 post-infection, indicated concentrations (FIG. 12))
1 | COc1ccccc1CN[C@H]1C2CCN(CC2)[C@H]1C(c1ccccc1)c1ccccc1 [CP-96,345, 2S, 3S)-cis-2-(diphenylmethyl)-N-[(2-methoxyphenyl)-methyl]-1-azabicyclo[[2.2.2]octan-3-amine] | inhibited | attenuated | significantly inhibited | not affected | down-regulated | significantly down-regulated | inhibited | inhibitory effects | down-regulated HIV replication to a level that was even lower than that of the HIV infection control | 54 | 43 | 1 | abrogated | failed to develop the giant syncytia | – | – | –
2 | COc1cc(C(=O)N2CCO[C@](CCN3CCC4(CC3)c3ccccc3C[S@+]4[O-])(c3ccc(Cl)c(Cl)c3)C2)cc(OC)c1OC.Cl [R-113281] | – | – | – | – | – | significantly down-regulated | – | inhibitory effects | – | – | – | – | – | – | inhibited | not affected | significantly reduced
